≈ marks a conversion by molar mass, not a printed value.
Key:
Escherichia coli [1] = test: Antibacterial activity against Escherichia coli TP1 harboring pBR322 carrying TEM-12 by broth microdilution method; type: functional
Escherichia coli [2] = test: Antibacterial activity against Escherichia coli TP1 harboring pBR322 carrying TEM-1 assessed as bacterial density at 512 ug/ml after 18 hrs; type: functional
Escherichia coli [3] = test: Antibacterial activity against Escherichia coli TP1 harboring pBR322 carrying TEM-10 assessed as bacterial density at 512 ug/ml after 18 hrs; type: functional
Escherichia coli [4] = test: Antibacterial activity against Escherichia coli TP1 harboring pBR322 carrying TEM-12 assessed as bacterial density at 512 ug/ml after 18 hrs; type: functional
Escherichia coli [5] = test: Antibacterial activity against Escherichia coli TP1 harboring pBR322 carrying TEM-1 assessed as bacterial density at 1024 ug/ml after 18 hrs; type: functional
Escherichia coli [6] = test: Antibacterial activity against Escherichia coli TP1 harboring pBR322 carrying TEM-10 assessed as bacterial density at 1024 ug/ml after 18 hrs; type: functional
Escherichia coli [7] = test: Antibacterial activity against Escherichia coli TP1 harboring pBR322 carrying TEM-12 assessed as bacterial density at 1024 ug/ml after 18 hrs; type: functional
Escherichia coli [8] = test: Antibacterial activity against Escherichia coli TP1 harboring pBR322 carrying TEM-1 assessed as bacterial density at 2048 ug/ml after 18 hrs relative to control; type: functional
Escherichia coli [9] = test: Antibacterial activity against Escherichia coli TP1 harboring pBR322 carrying TEM-10 assessed as bacterial density at 2048 ug/ml after 18 hrs relative to control; type: functional
Escherichia coli [10] = test: Antibacterial activity against Escherichia coli TP1 harboring pBR322 carrying TEM-12 assessed as bacterial density at 2048 ug/ml after 18 hrs relative to control; type: functional
Escherichia coli [11] = test: Antibacterial activity against Escherichia coli TP1 harboring pBR322 carrying TEM-1 assessed as inhibition of bacterial growth at 4096 ug/ml after 18 hrs; type: functional; details: TP1, 18 h
Escherichia coli [12] = test: Antibacterial activity against Escherichia coli TP1 harboring pBR322 carrying TEM-10 assessed as inhibition of bacterial growth at 4096 ug/ml after 18 hrs; type: functional; details: TP1, 18 h
Escherichia coli [13] = test: Antibacterial activity against Escherichia coli TP1 harboring pBR322 carrying TEM-12 assessed as inhibition of bacterial growth at 4096 ug/ml after 18 hrs; type: functional; details: TP1, 18 h
Escherichia coli [14] = test: Antibacterial activity against Escherichia coli TP1 by broth microdilution method
Escherichia coli [15] = test: Antibacterial activity against Escherichia coli TP1 harboring pBR322 carrying TEM-1 by broth microdilution method; type: functional
Escherichia coli [16] = test: Antibacterial activity against Escherichia coli TP1 harboring pBR322 carrying TEM-10 by broth microdilution method; type: functional
Escherichia coli [17] = test: Antibacterial activity against Escherichia coli TP1 harboring pBR322 carrying TEM-1 assessed as inhibition of bacterial growth at 2 ug/ml after 18 hrs; type: functional; details: TP1, 18 h
Escherichia coli [18] = test: Antibacterial activity against Escherichia coli TP1 harboring pBR322 carrying TEM-10 assessed as bacterial density up to 64 ug/ml after 18 hrs; type: functional
Escherichia coli [19] = test: Antibacterial activity against Escherichia coli TP1 harboring pBR322 carrying TEM-10 assessed as inhibition of bacterial growth at 256 ug/ml after 18 hrs; type: functional; details: TP1, 18 h
Escherichia coli [20] = test: Antibacterial activity against Escherichia coli TP1 harboring pBR322 carrying TEM-12 assessed as inhibition of bacterial growth at 64 ug/ml after 18 hrs; type: functional; details: TP1, 18 h
Escherichia coli [21] = test: Antibacterial activity against Escherichia coli TP1 harboring pBR322 carrying TEM-12 assessed as inhibition of bacterial growth at 256 ug/ml after 18 hrs; type: functional; details: TP1, 18 h

SMILES: CC1(C)S[C@@H]2[C@H](NC(=O)[C@H](N)c3ccccc3)C(=O)N2[C@H]1C(=O)O [AMPICILLIN]
- MIC (Escherichia coli [1]): 16400 µg/mL (≈ 46900 µM)
- Activity (Escherichia coli [2]): 5%
- Activity (Escherichia coli [3]): 5%
- Activity (Escherichia coli [4]): 5%
- Activity (Escherichia coli [5]): 5%
- Activity (Escherichia coli [6]): 5%
- Activity (Escherichia coli [7]): 5%
- Activity (Escherichia coli [8]): 95%
- Activity (Escherichia coli [9]): 42%
- Activity (Escherichia coli [10]): 72%
- inhibition at 4096 µg/mL (Escherichia coli [11]): 25%
- inhibition at 4096 µg/mL (Escherichia coli [12]): 78%
- inhibition at 4096 µg/mL (Escherichia coli [13]): 36%
- MIC (Escherichia coli [14]): 32 µg/mL (≈ 91.6 µM)
- MIC (Escherichia coli [15]): 16400 µg/mL (≈ 46900 µM)
- MIC (Escherichia coli [16]): 16400 µg/mL (≈ 46900 µM)

SMILES: CC(C)(O/N=C(\C(=O)N[C@@H]1C(=O)N2C(C(=O)[O-])=C(C[n+]3ccccc3)CS[C@H]12)c1csc(N)n1)C(=O)O [CEFTAZIDIME]
- MIC (Escherichia coli [1]): 512 µg/mL (≈ 937 µM)
- inhibition at 2 µg/mL (Escherichia coli [17]): 99%
- Activity (Escherichia coli [18]): 100%
- inhibition at 256 µg/mL (Escherichia coli [19]): 17%
- inhibition at 64 µg/mL (Escherichia coli [20]): 64%
- inhibition at 256 µg/mL (Escherichia coli [21]): 88%
- MIC (Escherichia coli [14]): 1 µg/mL (≈ 1.83 µM)
- MIC (Escherichia coli [15]): 8 µg/mL (≈ 14.6 µM)
- MIC (Escherichia coli [16]): > 1020 µg/mL
